PubChem BioAssay AID330 (DTP/NCI, 2004)
Several values for one entry are separate records, joined by “and”; a condition that tells them apart may be missing. Identical values can stand only once. Toxic doses and inconclusive results are not listed.

System: P388 leukemia ip, CD2F1 mice, survival T/C
Assay: NCI In Vivo Anticancer Drug Screen. Data for tumor model P388 Leukemia (intraperitoneal) in CD2F1 (CDF1) mice
Conditions: endpoint: median survival time, higher = longer survival
Summary of the method: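 Mice carrying the transplanted tumor received test compound or vehicle. Survival was recorded in each group, and the value is the treated-group measurement divided by that of the vehicle-treated control group.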

[1] = dose: 60.0 mg/kg/injection, schedule: Q01DX005 (ip), vehicle: saline with Tween-80
[2] = dose: 120.0 mg/kg/injection, schedule: Q01DX005 (ip), vehicle: saline with Tween-80
[3] = dose: 50.0 mg/kg/injection, schedule: Q01DX009 (ip), vehicle: saline with Tween-80
[4] = dose: 100.0 mg/kg/injection, schedule: Q01DX009 (ip), vehicle: saline with Tween-80
[5] = dose: 200.0 mg/kg/injection, schedule: Q01DX009 (ip), vehicle: saline with Tween-80
[6] = dose: 50.0 mg/kg/injection, schedule: Q01DX005 (ip), vehicle: saline
[7] = dose: 100.0 mg/kg/injection, schedule: Q01DX005 (ip), vehicle: saline
[8] = dose: 200.0 mg/kg/injection, schedule: Q01DX005 (ip), vehicle: saline
[9] = dose: 50.0 mg/kg/injection, schedule: Q01DX005 (ip), vehicle: Klucel (hydroxypropylcellulose) (HPC)
[10] = dose: 100.0 mg/kg/injection, schedule: Q01DX005 (ip), vehicle: Klucel (hydroxypropylcellulose) (HPC)
[11] = dose: 200.0 mg/kg/injection, schedule: Q01DX005 (ip), vehicle: Klucel (hydroxypropylcellulose) (HPC)
[12] = dose: 100.0 mg/kg/injection, schedule: Q04DX003 (ip), vehicle: saline with Tween-80
[13] = dose: 200.0 mg/kg/injection, schedule: Q04DX003 (ip), vehicle: saline with Tween-80
[14] = dose: 400.0 mg/kg/injection, schedule: Q01DX009 (ip), vehicle: saline with Tween-80
[15] = dose: 50.0 mg/kg/injection, schedule: Q01DX005 (ip), vehicle: saline with Tween-80
[16] = dose: 100.0 mg/kg/injection, schedule: Q01DX005 (ip), vehicle: saline with Tween-80
[17] = dose: 200.0 mg/kg/injection, schedule: Q01DX005 (ip), vehicle: saline with Tween-80

CC(=O)OCC1OC(n2cnc3c(=O)n(S(=O)(=O)c4ccc(C)cc4)cnc32)C(OC(C)=O)C1OC(C)=O (configuration not stated)
T/C [1]: 103 % of control | T/C [2]: 106 % of control | T/C (dose: 240.0 mg/kg/injection, schedule: Q01DX005 (ip), vehicle: saline with Tween-80): 100 % of control

CC(=O)N1OC2(C)c3ccccc3C1(C)c1ccccc12
T/C [3]: 100 % of control | T/C [4]: 94 % of control | T/C [5]: 92 % of control

CCCCn1cnc(C(=O)OC)c1O (tested in a mixture with another compound)
T/C (dose: 100.0 mg/kg/injection, schedule: Q04DX002 (ip), vehicle: water): 103 % of control | T/C (dose: 200.0 mg/kg/injection, schedule: Q04DX002 (ip), vehicle: water): 101 % of control | T/C (dose: 400.0 mg/kg/injection, schedule: Q04DX002 (ip), vehicle: water): 108 % of control

O=C1CC2CC3C1C2n1c(=O)n(-c2ccccc2)c(=O)n13 (configuration not stated)
T/C (dose: 100.0 mg/kg/injection, schedule: Q01DX001 (ip), vehicle: Klucel (hydroxypropylcellulose) (HPC)): 107 % of control | T/C (dose: 200.0 mg/kg/injection, schedule: Q01DX001 (ip), vehicle: Klucel (hydroxypropylcellulose) (HPC)): 101 % of control | T/C (dose: 400.0 mg/kg/injection, schedule: Q01DX001 (ip), vehicle: Klucel (hydroxypropylcellulose) (HPC)): 96 % of control

CCC#CC(=O)OC
T/C [3]: 94 % of control | T/C [4]: 103 % of control | T/C [5]: 114 % of control

CN(CCCCC(O)CN(C)C(=S)S)C(=S)S (configuration not stated)
T/C [6]: 98 % of control | T/C [7]: 102 % of control | T/C [8]: 98 % of control

COC1NC(=O)N(C)N(C)C1=O (configuration not stated)
T/C [6]: 100 % of control | T/C [7]: 99 % of control | T/C [8]: 100 % of control

NCCc1nc(-c2nc(C(=O)Nc3ccccc3)cs2)cs1
T/C (dose: 12.5 mg/kg/injection, schedule: Q01DX009 (ip), vehicle: distilled water + Tween-80): 100 % of control | T/C (dose: 25.0 mg/kg/injection, schedule: Q01DX009 (ip), vehicle: distilled water + Tween-80): 103 % of control | T/C (dose: 50.0 mg/kg/injection, schedule: Q01DX009 (ip), vehicle: distilled water + Tween-80): 103 % of control | T/C (dose: 100.0 mg/kg/injection, schedule: Q01DX009 (ip), vehicle: distilled water + Tween-80): 100 % of control

C#CCSC1=NS(=O)(=O)c2ccccc21
T/C (dose: 7.5 mg/kg/injection, schedule: Q01DX005 (ip), vehicle: saline with Tween-80): 115 % of control | T/C (dose: 15.0 mg/kg/injection, schedule: Q01DX005 (ip), vehicle: saline with Tween-80): 115 % of control | T/C (dose: 30.0 mg/kg/injection, schedule: Q01DX005 (ip), vehicle: saline with Tween-80): 98 % of control and 115 % of control | T/C [1]: 106 % of control

C=CCC1(CCC#N)C(=O)CC(C)(C)CC1=O
T/C (dose: 100.0 mg/kg/injection, schedule: Q04DX003 (ip), vehicle: saline): 104 % of control | T/C (dose: 200.0 mg/kg/injection, schedule: Q04DX003 (ip), vehicle: saline): 99 % of control | T/C (dose: 400.0 mg/kg/injection, schedule: Q04DX003 (ip), vehicle: saline): 98 % of control

CCOP(=S)(N/N=C/c1c(CO)cnc(C)c1O)OCC
T/C [9]: 98 % of control | T/C [10]: 102 % of control | T/C [11]: 101 % of control

Ic1ccccc1C[N+]12CN3CN(CN(C3)C1)C2
T/C [12]: 120 % of control | T/C [13]: 115 % of control

O=C1CCCC(O)=C1[Se]C1=C(O)CCCC1=O
T/C (dose: 6.25 mg/kg/injection, schedule: Q01DX001 (ip), vehicle: saline): 103 % of control | T/C (dose: 12.5 mg/kg/injection, schedule: Q01DX001 (ip), vehicle: saline): 101 % of control | T/C (dose: 25.0 mg/kg/injection, schedule: Q01DX001 (ip), vehicle: saline): 101 % of control

O=C(c1ccccc1)C1(c2ccccc2)CC1
T/C [3]: 104 % of control | T/C [4]: 104 % of control | T/C [5]: 104 % of control | T/C [14]: 99 % of control

CCN1c2ccccc2SC1CC1=C(O)C(CC2Sc3ccccc3N2CC)=C1O (configuration not stated)
T/C (dose: 60.0 mg/kg/injection, schedule: Q01DX005 (ip), vehicle: Klucel (hydroxypropylcellulose) (HPC)): 91 % of control | T/C (dose: 120.0 mg/kg/injection, schedule: Q01DX005 (ip), vehicle: Klucel (hydroxypropylcellulose) (HPC)): 96 % of control | T/C (dose: 240.0 mg/kg/injection, schedule: Q01DX005 (ip), vehicle: Klucel (hydroxypropylcellulose) (HPC)): 89 % of control

CC(C)n1c(=S)[nH]c2ccccc2c1=O
T/C [4]: 90 % of control | T/C [12]: 95 % of control | T/C [5]: 90 % of control | T/C [13]: 95 % of control | T/C [14]: 95 % of control | T/C (dose: 400.0 mg/kg/injection, schedule: Q04DX003 (ip), vehicle: saline with Tween-80): 91 % of control

NC(Cc1ccc(O)cc1)c1nn[nH]n1 (configuration not stated)
T/C (dose: 25.0 mg/kg/injection, schedule: Q01DX009 (ip), vehicle: saline with Tween-80): 114 % of control | T/C [3]: 100 % of control | T/C [4]: 99 % of control

FS(F)(F)(F)(F)c1cccc(NC(=S)SCc2ccc3c(c2)OCO3)c1
T/C (dose: 50.0 mg/kg/injection, schedule: Q01DX009 (ip), vehicle: suspension in saline): 102 % of control | T/C (dose: 100.0 mg/kg/injection, schedule: Q01DX009 (ip), vehicle: suspension in saline): 106 % of control | T/C (dose: 200.0 mg/kg/injection, schedule: Q01DX009 (ip), vehicle: suspension in saline): 102 % of control

O=S(=O)(F)c1ncnc2nc[nH]c12
T/C [15]: 93 % of control | T/C [16]: 103 % of control | T/C [17]: 112 % of control

Cn1c(CCCCCCCCc2c(C(=O)/C=C/c3ccccc3)c(=O)n(C)c(=O)n2C)c(C(=O)/C=C\c2ccccc2)c(=O)n(C)c1=O
T/C [15]: 88 % of control | T/C [16]: 90 % of control | T/C [17]: 90 % of control

Cc1ccc(S(=O)(=O)N/N=C/c2cc([N+](=O)[O-])cc(I)c2O)cc1
T/C (dose: 12.5 mg/kg/injection, schedule: Q01DX005 (ip), vehicle: distilled water + Tween-80): 102 % of control | T/C (dose: 25.0 mg/kg/injection, schedule: Q01DX005 (ip), vehicle: distilled water + Tween-80): 109 % of control | T/C (dose: 50.0 mg/kg/injection, schedule: Q01DX005 (ip), vehicle: distilled water + Tween-80): 98 % of control and 112 % of control | T/C (dose: 100.0 mg/kg/injection, schedule: Q01DX005 (ip), vehicle: distilled water + Tween-80): 98 % of control and 102 % of control | T/C (dose: 200.0 mg/kg/injection, schedule: Q01DX005 (ip), vehicle: distilled water + Tween-80): 122 % of control and 95 % of control | T/C (dose: 400.0 mg/kg/injection, schedule: Q01DX005 (ip), vehicle: distilled water + Tween-80): 93 % of control

C=CCc1ccc(OC)c(O)c1C(=O)OCC
T/C (dose: 50.0 mg/kg/injection, schedule: Q01DX009 (ip), vehicle: saline): 103 % of control | T/C (dose: 100.0 mg/kg/injection, schedule: Q01DX009 (ip), vehicle: saline): 103 % of control | T/C (dose: 200.0 mg/kg/injection, schedule: Q01DX009 (ip), vehicle: saline): 95 % of control

COc1cc2c3c4c(ccc3c1OC)CCCN4CC2
T/C (dose: 50.0 mg/kg/injection, schedule: Q01DX005 (ip), vehicle: Klucel + Tween-80): 99 % of control | T/C (dose: 100.0 mg/kg/injection, schedule: Q01DX005 (ip), vehicle: Klucel + Tween-80): 97 % of control

CC1(C)C2CC[C@@]1(CS(=O)(=O)N(CCCl)CCCl)C(=O)C2
T/C (dose: 30.0 mg/kg/injection, schedule: Q01DX005 (ip), vehicle: saline): 99 % of control | T/C (dose: 60.0 mg/kg/injection, schedule: Q01DX005 (ip), vehicle: saline): 98 % of control | T/C (dose: 120.0 mg/kg/injection, schedule: Q01DX005 (ip), vehicle: saline): 96 % of control | T/C (dose: 240.0 mg/kg/injection, schedule: Q01DX005 (ip), vehicle: saline): 96 % of control

COc1c(Br)c2c(c(OC)c1OC)-c1ccc(OC)c(=O)cc1C(NC(C)=O)CC2 (configuration not stated)
T/C (dose: 1.56 mg/kg/injection, schedule: Q01DX009 (ip), vehicle: Klucel (hydroxypropylcellulose) (HPC)): 165 % of control | T/C (dose: 3.12 mg/kg/injection, schedule: Q01DX009 (ip), vehicle: Klucel (hydroxypropylcellulose) (HPC)): 101 % of control and 96 % of control

CCOP(=S)(OCC)OC(=O)C(C)SSC (configuration not stated) (tested in a mixture with another compound)
T/C [1]: 101 % of control | T/C [2]: 104 % of control

COC(=O)C1C(=O)C2OC1C1OC(C)(C)OC21 (configuration not stated)
T/C [9]: 94 % of control | T/C [10]: 103 % of control | T/C [11]: 104 % of control
